The text below walks through data of paper PMC3517777, “Phase I study of TP300 in patients with advanced solid tumors with pharmacokinetic, pharmacogenetic and pharmacodynamic analyses” (BMC Cancer, 2012).

The structures appear in SMILES notation.

As usually defined, the Tmax is the time from dosing to the highest level. A word on the half-life: it is how long it takes for the measured level to halve. Low values mean fast loss, high ones slow loss.

A short description of data set [1]: Plasma and urine pharmacokinetics after TP300 infusion (LC-MS/MS, non-compartmental). In kind it is in vivo, human. Conditions: for fe (urinary excretion ratio): urine up to 48 hours, mean. How it is done:
Venous blood (3 mL) was taken into sodium heparin tubes containing 30 μL of 46% citric acid, centrifuged 1500g at 4°C for 10 min and 1 mol/L hydrochloric acid was added (1:10) to plasma from each subject at 10 time points during cycle 1 (pre dose, then 1, 1.25, 1.5, 2, 3, 5, 8, 24, 48 hours after the start of administration) and stored at −70°C. Samples were processed by extraction of protein using addition of organic solvent containing internal standards and assayed by LC-MS/MS with a robust, sensitive and validated method for the simultaneous determination of a novel topoisomerase 1 inhibitor CH0793076 (TP3076), the prodrug CH4556300 (TP300), and the active metabolite CH0793011 (TP3011). All plasma had been acidified during collection to avoid the pH-based degradation of TP300 and to shift the equilibria of TP3076 and TP3011 between the lactone and carboxylate forms towards the lactone forms. After the plasma proteins were precipitated with methanol:acetonitrile:HCl 1M (50:50:1, v:v:v) containing stable isotopic internal standards, the analytes were trapped on an Xterra MS C18 column (10×2.1 mm i.d., 5 μm) and separated on a Gemini C18 column (50×2.0 mm i.d., 5 μm) using column-switching liquid chromatography. Electrospray ionization in the positive-ion mode and multiple reaction monitoring were used to quantify the analytes with transitions m/z 587.2>441.2 for TP300, 459.1>415.2 for 3076, and 475.1>361.1 for 3011. The inter- and intra-day precisions were below 12%, and the accuracy was between −16% and 16% at the lower limit of quantitation (LLOQ) and between −11% and 14% at the other quality controls. The LLOQs of TP300, TP3076, and TP3011 were 0.8, 0.04, and 0.04 ng/mL, respectively.
Pharmacokinetic parameters derived from plasma concentration-time data of TP3076 or TP3011 by non-compartmental methods using WinNonlin (version 5.1; Pharsight Corp), included maximal plasma concentration (Cmax) and time of Cmax (Tmax), apparent plasma elimination half-life (t1/2), and the area under the curve (AUC). The urinary excretion ratio (fe) of TP3076 and TP3011 was calculated from the urinary concentration and volume up to 48 hours after administration, and the administration dose. The linearity of Cmax and AUC was determined with linear regression, analysis of variance and power model analysis. The sum of the AUCs of TP3076 and TP3011 was plotted against percentage (%) fall in nadir neutrophil count to explore the relationship between exposure and myelosuppression as a measure of anti-proliferative effect and a sigmoid Emax model fitted to the data: […]

For another data set, the system named is AOX1. Conditions: human, in vivo. As to the method:
(§1) Blood samples for pharmacogenomic analysis were collected and all samples anonymised for subsequent storage, assay and analysis. The impact on Cmax and AUC of genetic polymorphisms of CYP2D6, which is assumed to make some contribution to the hydroxylation of TP3076, but not TP3011, AOX1, which metabolises TP3076 to TP3011, and UGT1A1, which metabolises SN-38 to its glucuronide, but is not believed to influence TP300 metabolism were explored. The analysis was performed with the invader method or polymerase chain reaction (PCR)-invader method for single nucleotide polymorphisms (SNPs) of CYP2D6 and UGT1A1 *28 and with the long-PCR method for deletion of CYP2D6 and UGT1A1 gene. AOX1 SNPs were analysed by a direct sequencing method. Genomic DNAs were extracted from frozen peripheral blood of 31 subjects using an automated DNA extractor BioRobotMDx and commercial DNA purification kits (Qiagen). Quality and quantity of the DNAs were checked by the measurement of absorbencies at 260 nm and 280 nm. Primers were designed to amplify all the 35 exons of Aldehyde oxidese 1 gene (NCBI accession No. NM_001159) including some intronic flanking regions. The specificity of PCR conditions was confirmed by the agarose gel electrophoresis. Amplicons were prepared twice for every exons. The amplicons were subsequently treated with ExoSAP-IT (GE Healthcare) followed by the reactions with a cycle sequencing kit (BigDye Terminator v3.1, Applied Biosystems). The fragments obtained were purified using X-Terninator purification kit (Applied Biosystems) and analysed on an automated DNA sequencer (3730xl DNA Analyzer, Applied Biosystems). The resulted sequences were compared against the reference sequence using the variant reporter software (Applied Biosystems).

A further data set relates to UGT1A1. Conditions: human, in vivo. How it is done:
as §1

In a further data set the test system is CYP2D6. On the set-up: species or system human. The following applies: in vivo. How it is done: as §1, with “The specificity of PCR conditions was confirmed by the agarose gel electrophoresis. Amplicons were prepared twice for every exons. The amplicons were subsequently treated with ExoSAP-IT (GE Healthcare) followed by the reactions with a cycle sequencing kit (BigDye Terminator v3.1, Applied Biosystems).” left out, “The resulted sequences were compared against the reference sequence using the variant reporter software (Applied Biosystems).” left out

The subject of a further data set is Topo-1. On the set-up: method as in PMID 19495753. The following applies: cited from earlier work.
Data set [2] relates to HCT-116 colorectal cancer cells. On the set-up: method as in PMID 19254843. The following applies: HCT-116 colorectal cancer cells in vitro; cited from earlier work.
Details of data set [3]: method as in PMID 10873073. The following applies: irinotecan 350 mg/m^2, 3-weekly dosing regimen; cited from earlier work.
Setting [4] is: TP300 1 mg/m^2 1-hour i.v. infusion, N=3.
Setting [5] is: TP300 2 mg/m^2 1-hour i.v. infusion, N=3.
Where [6] appears, read: TP300 4 mg/m^2 1-hour i.v. infusion, N=3.
Where [7] appears, read: TP300 6 mg/m^2 1-hour i.v. infusion, N=3.
Setting [8] is: TP300 8 mg/m^2 1-hour i.v. infusion, N=3.
[9] abbreviates: TP300 10 mg/m^2 1-hour i.v. infusion, N=12.
Where [10] appears, read: TP300 12 mg/m^2 1-hour i.v. infusion, N=4.

Turning to `CCCCCN1C=Nc2cccc3nc4c(c1c23)Cn1c-4cc2c(c1=O)COC(=O)[C@]2(O)CC` [TP3076], the “fe (urinary excretion ratio)” value in data set [1] (setting [4]) is recorded as 2.45%; in data set [1] (setting [5]) it was 2.87%; in data set [1] (setting [6]) it was 1.31%; in data set [1] (setting [7]), 1.78%; in data set [1] (setting [8]), 1.71%; in data set [1] (setting [9]) it was 3.09%. In data set [1] (setting [10]), the “fe (urinary excretion ratio)” value stood at 6.33%. Besides, in data set [1] (human, in vivo), the Urinary excretion ratios entry is given as “at most 6%”. Moreover, the “dose dependence of Cmax and AUC” value in data set [1] (human, in vivo) is recorded as “increased proportionately”. The time to peak (Tmax) in data set [1] (human, in vivo, Tmax) turned out to be 1 h; in data set [1] (human, in vivo, iv, tmax), 1.26 h. For the same compound, in data set [1] (in vivo), the “Glucuronidated TP3076 (detection)” value is listed as “not detected”. Besides, the “difference of exposure (Cmax, AUC) among AOX1 (c3404A > G) genotypes” value in the data set on AOX1 is recorded as “no apparent significant difference”. Besides, the “difference in exposure (Cmax, AUC) among UGT1A1*28 genotypes” value in the data set on UGT1A1 is “no apparent significant difference”. In addition, in the data set with CYP2D6, the “exposure in CYP2D6 extensive metabolisers” value was “slight reduction”. Further, in the data set on Topo-1, the “Topo-1 inhibition relative to SN38” value is “equipotent”. Also, in data set [2], the IC50 entry is given as “sub-nanomolar range”.

In the case of `CCc1c2c(nc3ccc(O)cc13)-c1cc3c(c(=O)n1C2)COC(=O)[C@]3(O)CC` [SN-38], the “AUC of SN-38 at which DLTs occur” value in data set [3] is 1.5 µM·h.

`CCCCCN1C(=O)Nc2cccc3nc4c(c1c23)Cn1c-4cc2c(c1=O)COC(=O)[C@]2(O)CC` [TP3011]: the “fe (urinary excretion ratio)” value is reported as 0.792% in data set [1] (setting [4]); 0.739% in data set [1] (setting [5]); 0.796% in data set [1] (setting [6]); 0.593% in data set [1] (setting [7]); 0.594% in data set [1] (setting [8]); 1.10% in data set [1] (setting [9]). In addition, in data set [1] (setting [10]), the “fe (urinary excretion ratio)” value is given as 1.99%. Moreover, the Urinary excretion ratios entry in data set [1] (human, in vivo) is “at most 6%”. Further, the “dose dependence of Cmax and AUC” value in data set [1] (human, in vivo) is on record as “increased proportionately”. The time to peak (Tmax) in data set [1] (human, in vivo, Tmax) lay in the range of 3 to 5 h. Also, the half-life in data set [1] (human, in vivo, iv, t1/2) is 6.92 h. Besides, the “difference of exposure (Cmax, AUC) among AOX1 (c3404A > G) genotypes” value in the data set with AOX1 was “no apparent significant difference”. The “difference in exposure (Cmax, AUC) among UGT1A1*28 genotypes” value in the data set with UGT1A1 was “no apparent significant difference”. Besides, the “exposure in CYP2D6 extensive metabolisers” value in the data set with CYP2D6 is reported as “slight decrease”. The “Topo-1 inhibition relative to SN38” value with Topo-1 is on record as “equipotent”. The IC50 result in data set [2] was “sub-nanomolar range”.
